Here are results for 10 compounds from patent publication US20250346585A1 (Alexion Pharmaceuticals, Inc., priority 2022, published 2025).

Structures are written as SMILES.

Chain of Human complement C1s enzyme (P09871 438-688 limits assumed): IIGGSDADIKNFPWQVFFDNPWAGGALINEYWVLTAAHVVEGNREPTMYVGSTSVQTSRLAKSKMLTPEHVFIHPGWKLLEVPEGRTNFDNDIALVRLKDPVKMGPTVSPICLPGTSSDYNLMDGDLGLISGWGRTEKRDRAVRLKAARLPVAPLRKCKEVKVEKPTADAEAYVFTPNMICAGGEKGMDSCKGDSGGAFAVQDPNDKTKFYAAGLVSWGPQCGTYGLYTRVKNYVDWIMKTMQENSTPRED
Chain of Human complement C1s enzyme (P09871 16-437 partner limits assumed): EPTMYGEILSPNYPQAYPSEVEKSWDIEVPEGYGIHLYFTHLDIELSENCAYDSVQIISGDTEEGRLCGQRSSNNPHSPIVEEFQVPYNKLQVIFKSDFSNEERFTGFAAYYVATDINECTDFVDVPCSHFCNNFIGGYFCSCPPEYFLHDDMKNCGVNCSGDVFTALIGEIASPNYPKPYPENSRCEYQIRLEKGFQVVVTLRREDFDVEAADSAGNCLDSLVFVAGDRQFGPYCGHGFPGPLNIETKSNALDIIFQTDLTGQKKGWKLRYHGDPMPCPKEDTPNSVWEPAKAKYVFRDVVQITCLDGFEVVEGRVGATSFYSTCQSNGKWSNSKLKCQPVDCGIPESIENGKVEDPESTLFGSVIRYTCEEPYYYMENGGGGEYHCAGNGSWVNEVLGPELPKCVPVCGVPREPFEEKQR

The target in this test is Human complement C1s enzyme (Homo sapiens (Human), UniProt P09871). Put plainly: Human C1s enzyme assay. The format is biochemical. The settings on record: Human complement C1s enzyme 1.16 nM, substrate Z-L-Lys-SBzl; assay of Example 3; read-out: IC50 (Stars). In a few lines:
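IC50 derived by nonlinear regression of rate versus concentration, with rate taken from A405 kinetics (30 s intervals, 30 min) after adding 100 μM each Z-L-Lys-SBzl and DTNB. C1s from human serum, 1.16 nM, exposed to compound for 5 min at RT beforehand; buffer 50 mM Tris, 1 M NaCl, pH 7.5.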
What is called IC50 is the concentration that gives 50% inhibition. On to `C[C@@H](NC(=O)[C@@H]1C[C@]2(COCCCCN)C[C@@H]2N1C(=O)CNC(=O)c1ccc2c(c1)-c1ccccc1C2(F)F)c1cc(C(=N)N)cs1` [Compound 414, (1S,3S,5R)-5-((4-aminobutoxy)methyl)-N—((R)-1-(4-carbamimidoylthiophen-2-yl)ethyl)-2-((9,9-difluoro-9H-fluorene-3-carbonyl)glycyl)-2-azabicyclo[3.1.0]hexane-3-carboxamide], for which the IC50 was < 100 nM.

For `C[C@@H](NC(=O)[C@@H]1C[C@]2(COCCCCN(C)C)C[C@@H]2N1C(=O)CNC(=O)c1ccc2c(c1)-c1ccccc1C2(F)F)c1cc(C(=N)N)cs1` [Compound 415, (1S,3S,5R)—N—((R)-1-(4-carbamimidoylthiophen-2-yl)ethyl)-2-((9,9-difluoro-9H-fluorene-3-carbonyl)glycyl)-5-((4-(dimethylamino)butoxy)methyl)-2-azabicyclo[3.1.0]hexane-3-carboxamide], the IC50 was < 100 nM.

`C[C@@H](NC(=O)[C@@H]1CC(c2ncco2)CN1C(=O)CNC(=O)c1ccc2c(c1)-c1ccccc1C2(F)F)c1cc(C(=N)N)cs1` (stereo partly drawn) [Compound 416, (S)—N—((R)-1-(4-carbamimidoylthiophen-2-yl)ethyl)-1-((9,9-difluoro-9H-fluorene-3-carbonyl)glycyl)-4-(oxazol-2-yl)pyrrolidine-2-carboxamide]: the IC50 was < 100 nM.

For `CC1c2ccccc2-c2cc(C(=O)NCC(=O)N3C[C@@](F)(CF)C[C@H]3C(=O)N[C@H](C)c3cc(C(=N)N)cs3)ccc21` (stereo partly drawn) [Compound 417, (2S,4R)—N—((R)-1-(4-carbamimidoylthiophen-2-yl)ethyl)-4-fluoro-4-(fluoromethyl)-1-((9-methyl-9H-fluorene-3-carbonyl)glycyl)pyrrolidine-2-carboxamide], the IC50 is < 100 nM.

With `COC[C@@]1(F)C[C@@H](C(=O)N[C@H](C)c2cc(C(=N)N)cs2)N(C(=O)CNC(=O)c2ccc3c(c2)-c2ccccc2C3C)C1` (stereo partly drawn) [Compound 418, (2S,4R)—N—((R)-1-(4-carbamimidoylthiophen-2-yl)ethyl)-4-fluoro-4-(methoxymethyl)-1-((9-methyl-9H-fluorene-3-carbonyl)glycyl)pyrrolidine-2-carboxamide], the concentration for half-maximal inhibition (IC50) is < 100 nM.

Consider `CC1c2ccccc2-c2cc(C(=O)NCC(=O)N3C[C@H](S(C)(=O)=O)C[C@H]3C(=O)N[C@H](C)c3cc(C(=N)N)cs3)ccc21` (stereo partly drawn) [Compound 419, (2S,4R)—N—((R)-1-(4-carbamimidoylthiophen-2-yl)ethyl)-1-((9-methyl-9H-fluorene-3-carbonyl)glycyl)-4-(methylsulfonyl)pyrrolidine-2-carboxamide], for which the IC50 is < 100 nM.

`C[C@@H](NC(=O)[C@@H]1C[C@]2(Cc3ncno3)C[C@@H]2N1C(=O)CNC(=O)c1ccc2c(c1)-c1ccccc1C2(F)F)c1cc(C(=N)N)cs1` [Compound 420, (1S,3S,5S)-5-((1,2,4-oxadiazol-5-yl)methyl)-N—((R)-1-(4-carbamimidoylthiophen-2-yl)ethyl)-2-((9,9-difluoro-9H-fluorene-3-carbonyl)glycyl)-2-azabicyclo[3.1.0]hexane-3-carboxamide]: the 50% inhibitory concentration (IC50) was < 100 nM.

Regarding `CC1c2ccccc2-c2cc(C(=O)NCC(=O)N3C[C@H](OC(F)F)C[C@H]3C(=O)N[C@H](C)c3cc(C(=N)N)cs3)ccc21` (stereo partly drawn) [Compound 421, (2S,4R)-N-((R)-1-(4-carbamimidoylthiophen-2-yl)ethyl)-4-(difluoromethoxy)-1-((9-methyl-9H-fluorene-3-carbonyl)glycyl) pyrrolidine-2-carboxamide], the half-inhibitory concentration (IC50) is < 100 nM.

On to `C[C@@H](NC(=O)[C@@H]1C[C@]2(COCCCN(C)C)C[C@@H]2N1C(=O)CNC(=O)c1ccc2c(c1)-c1ccccc1C2(F)F)c1cc(C(=N)N)cs1` [Compound 422, (1S,3S,5R)-N-((R)-1-(4-carbamimidoylthiophen-2-yl)ethyl)-2-((9,9-difluoro-9H-fluorene-3-carbonyl)glycyl)-5-((3-(dimethylamino)propoxy)methyl)-2-azabicyclo[3.1.0]hexane-3-carboxamide], for which the IC50 is < 100 nM.

In the case of `N=C(N)c1c[nH]c(CNC(=O)[C@@H]2CC3(CN2C(=O)CNC(=O)c2ccc4c(c2)-c2ccccc2C4(F)F)OCCO3)c1` [Compound 423, (S)-N-((4-carbamimidoyl-1H-pyrrol-2-yl)methyl)-7-((9,9-difluoro-9H-fluorene-3-carbonyl)glycyl)-1,4-dioxa-7-azaspiro[4.4]nonane-8-carboxamide], the IC50 is < 100 nM.
